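Dose response: 5 concentrations. Exposure: 48 h. Format: 96-well plates. Endpoint: linear interpolation; highest concentration if not reached. Abbreviation: GI50, concentration required for 50% inhibition of growth. TGI: concentration producing complete growth inhibition.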 Where only a bound is given, the exact number is not on record here.

Common to all, as to assay: DTP human tumour cell line panel, 48 h
The subject of assay [1] is HT29 colon.
In assay [2] the test system is NCI-H522 lung.
Assay [3] deals with NCI/ADR-RES ovarian.
Assay [4] relates to OVCAR-5 ovarian.
Assay [5] relates to OVCAR-8 ovarian.
For assay [6], the system named is SK-MEL-2 melanoma.
For assay [7], the system named is SNB-75 CNS.
The subject of assay [8] is TK-10 renal.
Assay [9] concerns M14 melanoma.
Assay [10] deals with MALME-3M melanoma.

For orientation: GI50 means the concentration at which growth is held to half of that of the control. By TGI is commonly meant the concentration giving total growth inhibition. Higher therefore signals less potent growth arrest. As for `COC(=O)C/C(C)=C/[C@@H](O)[C@H]1O[C@@H]2CC/C(Cl)=C/C/C=C(/C)[C@H](OC(C)=O)CC(=O)O[C@@H]1C2`, the GI50 was 1.26 µM in assay [1]; 1.29 µM in assay [2]; 9.91 µM in [3]; 8.17 µM in assay [4]; 4.73 µM in assay [5]; 0.581 µM in [6]. Also, the GI50 was 1.16 µM in [7] and 0.489 µM in assay [8]. Moreover, the TGI was greater than 25 µM in [1]; greater than 25 µM in assay [2]; greater than 25 µM in assay [3]; greater than 25 µM in assay [4]; greater than 25 µM in [5]; 9.62 µM in [6]. Further, the total growth inhibition concentration (TGI) in [7] came to 6.14 µM; in [8], 1.32 µM.
Regarding `NC(=O)c1csc(C2O[C@@H](COP(=O)(O)OP(=O)(O)OC[C@H]3OC(n4cnc5c(N)ncnc54)[C@H](O)[C@@H]3O)[C@H](O)[C@@H]2O)n1` (stereo partly specified), the TGI in [1], in [9], in assay [10], in assay [2], in [4] and in assay [5] was greater than 100 µM throughout. Also, the TGI in assay [6], in assay [7] and in assay [8] was greater than 100 µM in each case.
Consider `O=C1NC(=O)C2=C1CCC2O` (stereo unspecified), for which the TGI in assay [1], in [9], in [10], in assay [3], in assay [4] and in assay [5] was greater than 100 µM in each case. The TGI in assay [6], in assay [7] and in [8] was greater than 100 µM each time.
Take `O=C(Nc1cccc(C2=NCCN2)c1)c1ccc(OCCCOc2ccc(C(=O)Nc3cccc(C4=NCCN4)c3)cc2)cc1`: the GI50 in assay [9] was 2.88 µM; in assay [3], 46.2 µM; in [4], 3.51 µM; in assay [5] it was 4.03 µM; in [8], 13.2 µM. Moreover, the TGI in [9] was greater than 100 µM; in [3], greater than 100 µM; in [4], 20.4 µM; in [5], greater than 100 µM; in [8], 35.3 µM.
With `Cc1ccc(C2=[N+]([O-])c3ccccc3C2=O)cc1`, the TGI in assay [1] is greater than 65 µM; in assay [9] it was 59.4 µM; in assay [10], 41 µM; in assay [2] it was 32.4 µM; in assay [4] it was greater than 89.9 µM; in assay [5], 36 µM. For the same compound, the values for the TGI in assay [6], in assay [7] and in assay [8] were 97.7 µM, greater than 100 µM and greater than 31.6 µM, respectively.
As for `O=C(Oc1cccc(Nc2ncnc3ccccc23)c1)c1ccccc1Cl`, the GI50 is 27.4 µM in assay [1]; 39.7 µM in assay [9]; 23.9 µM in [10]; 7.23 µM in assay [2]; 14.5 µM in assay [3]; 32.3 µM in [4]. Further, the GI50 in assay [5] was 20.2 µM; in assay [8], 8.72 µM. Further, the TGI in assay [1] was greater than 100 µM; in assay [9] it was greater than 100 µM; in [10] it was 57.1 µM; in assay [2], 26.8 µM; in assay [3], 40.7 µM; in [4], greater than 100 µM. In addition, the TGI in assay [5] is 59.1 µM; in assay [8], 37.8 µM.
For the compound `N.N.NCCCCN.O=C([O-])CC(=O)[O-].O=C([O-])CC(=O)[O-].[Pt+4].[Pt+4]`, the GI50 in assay [1] was greater than 100 µM; in assay [9], greater than 100 µM; in assay [10] it was greater than 100 µM; in [2] it was 18.2 µM; in assay [4], greater than 100 µM; in assay [5] it was greater than 100 µM. Also, the GI50 in assay [6], in [7] and in assay [8] was greater than 100 µM in each case. Also, the TGI in assay [1] was greater than 100 µM; in [9], greater than 100 µM; in [10], greater than 100 µM; in assay [2], 62.5 µM; in assay [4] it was greater than 100 µM; in [5] it was greater than 100 µM. For the same compound, the TGI in [6], in [7] and in assay [8] was greater than 100 µM each time.
As for `Cc1cc(S(=O)(=O)Nc2nnc(-c3ccco3)c(-c3ccco3)n2)c(SCc2ccccc2)cc1Cl`, the GI50 is 23.1 µM in assay [1]; 25.8 µM in [9]; 19.8 µM in assay [10]; 24.8 µM in assay [2]; 39.4 µM in [3]; 25.6 µM in [4]. In addition, the figures for the GI50 in assay [5], in assay [7] and in [8] were 26.6 µM, 32.1 µM and 26.7 µM, respectively. The TGI is 47.1 µM in assay [1]; 55.5 µM in [9]; 43.9 µM in assay [10]; 65.7 µM in assay [2]; greater than 100 µM in [3]; 49.8 µM in assay [4]. The TGI in assay [5] came to 71.1 µM; in assay [7] it was 56.2 µM; in [8] it was 74.8 µM.
On to `COC1CCC2C(=O)CCCC2O1` (stereo unspecified), for which the TGI in [1], in assay [9], in assay [10], in assay [2], in assay [4] and in assay [5] was greater than 100 µM throughout. Further, the TGI in assay [6], in [7] and in assay [8] was greater than 100 µM in each case.
Regarding `CCCCCCC(O)C/C=C/CCCCCC/C(C(=O)OC)=C(/O)C(=O)OCC` (stereo unspecified), the TGI in [1], in assay [9], in assay [10], in [2], in [4] and in assay [5] was greater than 100 µM throughout. Also, the TGI in [6], in assay [7] and in assay [8] was greater than 100 µM throughout.
For `COc1c2c(c(OC)c3c(=O)cc(C/C(=N/NC(=O)C[n+]4ccccc4)C(=O)Nc4cc(C)ccc4C)oc13)OCO2`, the TGI in assay [1], in [9], in [10], in assay [2], in assay [4] and in assay [5] was greater than 100 µM each time. Further, the TGI in assay [6], in [7] and in assay [8] was greater than 100 µM throughout.
Regarding `COC(=O)C1Cc2c(n(C)c3ccccc23)C(c2ccccc2)N1` (stereo unspecified), the TGI in assay [1] is greater than 100 µM; in [9], greater than 100 µM; in assay [10], greater than 100 µM; in assay [2], 93.1 µM; in [4], greater than 100 µM; in assay [5] it was greater than 100 µM. Moreover, the TGI in assay [6], in assay [7] and in assay [8] was greater than 100 µM throughout.

For the origin of these results see PubChem BioAssay (NCI).
